Measurements from PubChem BioAssay (NCI).
Values joined by “and” are separate entries in the source; they are usually repeats but may differ in a detail not shown here. Equal values may be shown once.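 Compound exposure: 48 hours, 5 concentrations, 96-well plates. Abbreviation: GI50, concentration required for 50% inhibition of growth. TGI marks complete inhibition of growth.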

Legend:
Assay in all cases: inhibition of tumour cell growth, NCI panel, 48 h
DU-145 prostate = system: DU-145 prostate
MCF7 breast = system: MCF7 breast
MDA-MB-231 breast = system: MDA-MB-231 breast
MDA-N = system: MDA-N
DMS 114 small cell lung = system: DMS 114 small cell lung
HOP-18 NSCLC = system: HOP-18 NSCLC
KM20L2 colon = system: KM20L2 colon
SNB-78 CNS = system: SNB-78 CNS
RXF-631 renal = system: RXF-631 renal

SMILES: CC(C)n1nc(-c2cc3cc(O)ccc3[nH]2)c2c(N)ncnc21
- GI50 (DU-145 prostate): 0.498 µM
- TGI (DU-145 prostate): 12 µM
- GI50 (MCF7 breast): 0.128 µM
- TGI (MCF7 breast): 7.86 µM
- GI50 (MDA-MB-231 breast): 0.296 µM
- TGI (MDA-MB-231 breast): 17.4 µM

SMILES: CC(C)(C)c1cc(Br)c(O)c(CN(Cc2cc(C(C)(C)C)cc(Br)c2O)C2CCCCC2)c1
- TGI (DU-145 prostate): 26.8 µM
- TGI (MCF7 breast): 26.8 µM
- TGI (MDA-MB-231 breast): 28.2 µM
- TGI (MDA-N): 27.6 µM

SMILES: COC(=O)/C(=N\Nc1nnc(C)n1N)C(C#N)c1ccc(Cl)cc1 (centres undefined)
- TGI (DMS 114 small cell lung): > 100 µM
- TGI (HOP-18 NSCLC): > 100 µM
- TGI (KM20L2 colon): > 100 µM
- TGI (SNB-78 CNS): > 100 µM

SMILES: Cc1cn(C2CC(N(O)Cc3ccccc3)C(CO[Si](C)(C)C(C)(C)C)O2)c(=O)[nH]c1=O (centres undefined)
- TGI (DU-145 prostate): > 100 µM and 32 µM
- TGI (MCF7 breast): > 100 µM and 35.1 µM
- TGI (MDA-MB-231 breast): 32.6 µM and 31.3 µM
- TGI (MDA-N): 35.1 µM and 31.7 µM

SMILES: CS/C(N)=N\NC(=O)CCC(=O)Nc1ccccc1C(F)(F)F
- TGI (DMS 114 small cell lung): > 100 µM
- TGI (HOP-18 NSCLC): > 100 µM
- TGI (KM20L2 colon): > 58.5 µM
- TGI (SNB-78 CNS): > 100 µM

SMILES: O=C(NC1=CC(=O)c2ccccc2C1=O)c1ccccc1
- GI50 (DU-145 prostate): 1.71 µM
- TGI (DU-145 prostate): 3.46 µM
- GI50 (MCF7 breast): 1.05 µM
- TGI (MCF7 breast): 2.76 µM
- GI50 (MDA-MB-231 breast): 0.421 µM
- TGI (MDA-MB-231 breast): 1.76 µM

SMILES: Nn1c(=O)n(Cc2ccccc2)n(-c2ccccc2)c1=O
- TGI (SNB-78 CNS): > 100 µM

SMILES: COC(C(O)CO)C(O)C(O)C(=O)NNc1ccccc1 (centres undefined)
- TGI (DU-145 prostate): > 100 µM
- TGI (MCF7 breast): > 100 µM
- TGI (MDA-MB-231 breast): > 100 µM
- TGI (MDA-N): > 100 µM

SMILES: CN1C(=O)c2cccc3cc([N+](=O)[O-])cc(c23)C1=O
- TGI (DU-145 prostate): > 10 µM
- TGI (MCF7 breast): > 10 µM
- TGI (MDA-MB-231 breast): > 10 µM
- TGI (MDA-N): > 10 µM

SMILES: CC1(C)SCc2nc3ncccc3n21
- TGI (DMS 114 small cell lung): > 100 µM
- TGI (KM20L2 colon): > 100 µM
- TGI (RXF-631 renal): > 100 µM
- TGI (SNB-78 CNS): > 100 µM

SMILES: O=C(N/N=C/c1ccc(Cl)cc1)c1ccc(C(F)(F)F)nc1Nc1cccc(C(F)(F)F)c1
- GI50 (DU-145 prostate): 2.33 µM
- TGI (DU-145 prostate): 10.8 µM
- GI50 (MCF7 breast): 2.26 µM
- TGI (MCF7 breast): 10.8 µM
- GI50 (MDA-MB-231 breast): 2.22 µM
- TGI (MDA-MB-231 breast): 8.83 µM

SMILES: CCC[CH2][Sn]1([CH2]CCC)[O]CC(CN2CCCC2)[O]1 (centres undefined)
- GI50 (DMS 114 small cell lung): 13 µM
- TGI (DMS 114 small cell lung): 27 µM
- GI50 (KM20L2 colon): 20.6 µM
- TGI (KM20L2 colon): 52 µM
- GI50 (SNB-78 CNS): 11.4 µM
- TGI (SNB-78 CNS): 37.4 µM

SMILES: COC1=C(C)C(=O)c2c(c(COC(N)=O)c3n2CC2C3N2C)C1=O (centres undefined)
- TGI (DU-145 prostate): 0.0542 µM
- TGI (MCF7 breast): < 0.027 µM
- TGI (MDA-MB-231 breast): 0.409 µM
- TGI (MDA-N): 0.136 µM

SMILES: COc1ccccc1CNCCCN1C(=O)c2ccc3c4c(ccc(c24)C1=O)C(=O)N(CCCOCCCCOCCCN)C3=O
- GI50 (DU-145 prostate): 1.78 µM
- TGI (DU-145 prostate): 3.44 µM
- GI50 (MDA-MB-231 breast): 1.08 µM
- TGI (MDA-MB-231 breast): 4.14 µM

SMILES: N#C/C(=C1C=C(Br)/C(=N\O)C=C\1Cl)c1cccc2ccccc12
- TGI (DU-145 prostate): 12.6 µM
- TGI (MCF7 breast): 28.6 µM
- TGI (MDA-MB-231 breast): 16.3 µM
- TGI (MDA-N): 3.28 µM

SMILES: COC(=O)C1=C(C)N(NC(=O)OC(C)(C)C)C(=O)C1=P(c1ccccc1)(c1ccccc1)c1ccccc1
- TGI (DMS 114 small cell lung): > 100 µM
- TGI (HOP-18 NSCLC): > 100 µM
- TGI (KM20L2 colon): > 100 µM
- TGI (SNB-78 CNS): > 100 µM

SMILES: COc1ccc(Nc2c3ccccc3nc3occc23)cc1
- GI50 (DU-145 prostate): 14.2 µM
- TGI (DU-145 prostate): > 100 µM
- GI50 (MCF7 breast): 0.682 µM
- TGI (MCF7 breast): 36.1 µM
- GI50 (MDA-MB-231 breast): 3.66 µM
- TGI (MDA-MB-231 breast): 22.7 µM

SMILES: COC1(OC)C2(Cl)C(Cl)=C(Cl)C1(Cl)C1C=CC=CC12 (centres undefined)
- TGI (DMS 114 small cell lung): > 100 µM
- TGI (KM20L2 colon): > 100 µM
- TGI (RXF-631 renal): 39.9 µM
- TGI (SNB-78 CNS): > 100 µM

SMILES: CN1C/C=C\CCOc2cccc(c2)-c2ccnc(n2)Nc2cccc(c2)C1
- GI50 (DU-145 prostate): 0.0562 µM
- TGI (DU-145 prostate): 6 µM
- GI50 (MCF7 breast): 0.0354 µM
- TGI (MCF7 breast): 1.23 µM
- GI50 (MDA-MB-231 breast): 0.0591 µM
- TGI (MDA-MB-231 breast): 0.859 µM

SMILES: c1ccc2c(c1)ccn2CCc1c[nH]c2ccccc12
- TGI (DU-145 prostate): > 10 µM
- TGI (MCF7 breast): > 10 µM
- TGI (MDA-MB-231 breast): > 10 µM
- TGI (MDA-N): > 10 µM

SMILES: COc1cc2c3c(n(CCCNC(=O)OCC4c5ccccc5-c5ccccc54)c(=O)c2cc1OC)-c1cc2c(cc1/C3=C\CCNC(=O)OCC1c3ccccc3-c3ccccc31)OCO2
- GI50 (DU-145 prostate): > 42.2 µM
- TGI (DU-145 prostate): > 50 µM
- TGI (MCF7 breast): > 18.5 µM
- GI50 (MDA-MB-231 breast): > 19 µM
- TGI (MDA-MB-231 breast): > 44 µM

SMILES: CCCN1CCC(=O)N(CCC(F)(F)C(F)(F)C(F)(F)C(F)(F)C(F)(F)C(F)(F)F)C1=S
- TGI (DU-145 prostate): > 100 µM
- TGI (MCF7 breast): > 100 µM
- TGI (MDA-MB-231 breast): > 100 µM
- TGI (MDA-N): > 100 µM

SMILES: COC(=O)[C@@H](C)CNS(=O)(=O)N(c1cc(C(F)(F)F)cc(C(F)(F)F)c1)C1CCN(Cc2ccc(F)cc2)CC1
- GI50 (DU-145 prostate): 13.4 µM
- TGI (DU-145 prostate): 27.4 µM
- GI50 (MCF7 breast): 6.91 µM
- TGI (MCF7 breast): 21.9 µM
- GI50 (MDA-MB-231 breast): 12.7 µM
- TGI (MDA-MB-231 breast): 29.3 µM

SMILES: c1ccc(CNn2nnc3ccccc32)cc1
- TGI (DMS 114 small cell lung): > 100 µM
- TGI (KM20L2 colon): > 100 µM
- TGI (SNB-78 CNS): > 100 µM

SMILES: CCOC(=O)[C@@H](N)CCC(=O)N[C@@H](CSCc1ccccc1)C(=O)N[C@@H](C(=O)OCC)c1ccccc1
- GI50 (DU-145 prostate): 38.3 µM
- TGI (DU-145 prostate): > 100 µM
- GI50 (MCF7 breast): 16.5 µM
- TGI (MCF7 breast): 33.9 µM
- GI50 (MDA-MB-231 breast): 18.1 µM
- TGI (MDA-MB-231 breast): 34.1 µM

SMILES: CN(C)C(=O)c1cc2cnc(Nc3ccc(-c4csc5c(=S)cc(N6CCOCC6)oc45)cc3)nc2n1C1CCCC1
- GI50 (DU-145 prostate): 0.774 µM
- TGI (DU-145 prostate): > 50 µM
- GI50 (MCF7 breast): 0.235 µM
- TGI (MCF7 breast): 2.44 µM
- GI50 (MDA-MB-231 breast): 0.249 µM
- TGI (MDA-MB-231 breast): > 50 µM

SMILES: N#CC(NNC(=O)Cc1ccccc1)c1c(O)ccc2ccccc12 (centres undefined)
- TGI (DMS 114 small cell lung): 5.38 µM
- TGI (DU-145 prostate): > 63.2 µM
- TGI (HOP-18 NSCLC): 35.4 µM
- TGI (KM20L2 colon): 42 µM
- TGI (MCF7 breast): 14.3 µM
- TGI (MDA-MB-231 breast): 58.9 µM
- TGI (MDA-N): > 100 µM
- TGI (SNB-78 CNS): 72 µM

SMILES: Cn1c2c(c3ccccc31)CC1c3c(c4ccccc4n3C)CC21 (centres undefined)
- TGI (DU-145 prostate): > 100 µM
- TGI (MCF7 breast): > 100 µM
- TGI (MDA-MB-231 breast): > 100 µM
- TGI (MDA-N): > 100 µM

SMILES: NS(=O)(=O)c1ccc(NC2(C(=O)O)CCCC2)cc1
- TGI (DU-145 prostate): > 100 µM
- TGI (MCF7 breast): > 100 µM
- TGI (MDA-MB-231 breast): > 100 µM
- TGI (MDA-N): > 100 µM

SMILES: CC(C)C(Nc1c2ccccc2nc2ccccc12)C(=O)O (centres undefined)
- TGI (KM20L2 colon): > 100 µM

SMILES: COc1cc(C=C2C(=O)NC(=O)NC2=O)cc(OC)c1OC
- TGI (DMS 114 small cell lung): > 100 µM
- TGI (HOP-18 NSCLC): > 100 µM
- TGI (KM20L2 colon): > 100 µM
- TGI (SNB-78 CNS): > 100 µM

SMILES: Cc1cc(Cl)ccc1N=C1NC(=O)C(CC(=O)Nc2ccc([N+](=O)[O-])cc2[N+](=O)[O-])S1 (centres undefined)
- TGI (DMS 114 small cell lung): 49.9 µM
- TGI (KM20L2 colon): > 100 µM
- TGI (SNB-78 CNS): 73.6 µM

SMILES: CCCCCCCC/C=C/CCCCCCCC(=O)OC[C@H]1O[C@@H](n2ccc(N)nc2=O)C(F)(F)[C@@H]1O
- GI50 (DU-145 prostate): < 0.019 µM
- TGI (DU-145 prostate): > 46.2 µM
- GI50 (MCF7 breast): < 0.01 µM
- TGI (MCF7 breast): > 100 µM
- GI50 (MDA-MB-231 breast): 7.98 µM
- TGI (MDA-MB-231 breast): > 100 µM
